Positions of bridges follow the written chain, without caps; N, C: chain ends. Residues, ends and D or L forms follow the SMILES beside them.
How the values were obtained:
Type in all cases: cell-based
[1] = target: T1, rKV1.6 (Rattus norvegicus, UniProt P17659); test: Two-electrode voltage-clamp on Xenopus laevis oocytes expressing rKV1.6; settings: for IC50: concentration-response curve, percentage blocked current fitted with Hill equation, TEVC oocytes, 0 mV from −90 mV, read-out: KV1.6 IC50
T1 construct: expressed in transfected cells; host or cells: Xenopus laevis oocytes injected with cRNA
T1 sequence (P17659 whole entry): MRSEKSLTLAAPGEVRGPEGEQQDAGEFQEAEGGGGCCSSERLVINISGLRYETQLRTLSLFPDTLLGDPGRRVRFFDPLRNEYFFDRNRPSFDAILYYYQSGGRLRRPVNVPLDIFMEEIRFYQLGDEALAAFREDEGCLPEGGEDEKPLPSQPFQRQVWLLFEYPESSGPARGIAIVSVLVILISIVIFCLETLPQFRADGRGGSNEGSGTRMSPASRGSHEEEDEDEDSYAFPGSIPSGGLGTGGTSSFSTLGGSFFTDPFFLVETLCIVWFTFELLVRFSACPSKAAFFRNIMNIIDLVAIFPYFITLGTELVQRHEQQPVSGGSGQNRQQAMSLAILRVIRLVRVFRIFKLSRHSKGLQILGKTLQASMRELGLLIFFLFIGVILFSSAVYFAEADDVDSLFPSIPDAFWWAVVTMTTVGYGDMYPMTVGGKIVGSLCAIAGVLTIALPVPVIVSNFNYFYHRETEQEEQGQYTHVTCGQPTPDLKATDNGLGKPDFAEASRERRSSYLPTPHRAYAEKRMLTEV
Protocol: (§1) The pharmacological effect of AbeTx1 was analyzed by heterologous expression of 12 voltage-gated potassium channels isoforms (rKV1.1, Genbank NM173095; rKV1.2, Genbank NM012970; hKV1.3, Genbank L23499; rKV1.4,Genbank NM012971; rKV1.5, Genbank NM012972; rKV1.6, Genbank NM575671; Shaker IR from Drosophila melanogaster, Genbank CG12348; rKV2.1, Genbank NM013186; hKV3.1, Genbank NM004976; rKV4.2, Genbank NM031730; rKV4.3, Genbank NM031739 and hERG, Genbank NM000238), and three voltage-gated sodium channel subtypes (rNaV1.2, Genbank NM012647; rNaV1.4, Genbank M26643 and BgNaV1.1, from Blattella germanica) (r, rat; h, human) in oocytes from Xenopus laevis. The linearized plasmids were transcribed using a T7 or SP6 mMESSAGE-mMACHINE transcription kit (Life Technologies, Austin, TX, USA). Oocytes were injected with 20–50 nL of cRNA at a concentration of 1 ng·nL^−1 using a microinjector (Drummond Scientific, Broomall, PA, USA). The oocytes were stored for 1–3 days at 16 °C until sufficient expression of voltage-gated ion channels was achieved. Oocytes were maintained in an ND96 solution (in mM: 96 NaCl, 2 KCl, 1.8 CaCl2, 2 MgCl2 and 5 HEPES; pH 7.4), supplemented with 50 µg·mL^−1 gentamicin sulfate.
(§2) Two-electrode voltage-clamp recordings were performed at room temperature (18–22 °C) using a Geneclamp 500 amplifier (Molecular Devices, Sunnyvale, CA, USA) controlled by a pClamp data acquisition system (Axon Instruments, Union City, CA, USA). ND96 was used as bath solution. Whole-cell currents from oocytes were recorded 1–3 days after injection. Voltage and current electrodes were filled with KCl (3 M). The resistance of both electrodes was kept between 0.8–1.0 MΩ. The elicited currents were filtered at 0.5 or 2 kHz using a four-pole low-pass Bessel filter. Leak subtraction was performed using a -P/4 protocol. KV1.1-KV1.6 and Shaker IR currents were evoked by 500 ms depolarization to 0 mV, followed by a 500 ms pulse to −50 mV, from a holding potential of −90 mV. KV2.1, KV3.1, KV4.2, and KV4.3 currents were elicited by 500 ms pulses to + 20 mV from a holding potential of −90 mV. Current traces of hERG channels were elicited by applying a +40 mV pulse for 2.5 s, followed by a step to −120 mV for 2.5 s. Sodium current traces were evoked by 100 ms depolarization steps from a holding potential of −90 mV to 0 mV. Concentration-response curves were constructed by adding different AbeTx1 or analogs concentrations directly to the bath solution. The percentage of the KV blockade was plotted against the logarithm of the applied concentrations and fitted with the Hill Equation (1):y = 100/[1 + (IC50/[toxin]) × h](1) where y is the amplitude of the toxin-induced effect, IC50 is the toxin concentration at half-maximal efficacy, [toxin] is the toxin concentration, and h is the Hill coefficient. To investigate the effects on the voltage dependence of activation, current traces were evoked by 10 mV depolarization steps from a holding potential of −90 mV. Data were normalized to the maximal K^+ current amplitude, plotted against prepulse potential, and fitted using the Boltzmann Equation (2):IK/Imax = [1 + (exp(Vg − V)/k] − 1(2) where Imax represents maximal potassium current (IK), Vg is the voltage corresponding to half-maximal current, and k is the slope factor. Each experimental data represents mean ± standard error of at least three oocytes (n ≥ 3) from different frogs. Effect of the toxin on current-voltage experiments was statistically examined by comparing the control condition and the presence of toxin using the Student’s paired t-test. P-values < 0.05 are considered to be statistically significant. Data were analyzed using Clampfit 10.4 (Molecular Devices, Sunnyvale, CA, USA) and Origin v8.1 software (Origin Lab, Northampton, MA, USA), under the institutional license of the University of São Paulo.

[2] = target: T2, rKV1.1 (Rattus norvegicus, UniProt P10499); test: Two-electrode voltage-clamp on Xenopus laevis oocytes expressing rKV1.1; settings: for IC50: concentration-response curve, percentage blocked current fitted with Hill equation, TEVC oocytes, 0 mV from −90 mV, read-out: KV1.1 IC50
T2 construct: expressed in transfected cells; host or cells: Xenopus laevis oocytes injected with cRNA
T2 sequence (P10499 whole entry): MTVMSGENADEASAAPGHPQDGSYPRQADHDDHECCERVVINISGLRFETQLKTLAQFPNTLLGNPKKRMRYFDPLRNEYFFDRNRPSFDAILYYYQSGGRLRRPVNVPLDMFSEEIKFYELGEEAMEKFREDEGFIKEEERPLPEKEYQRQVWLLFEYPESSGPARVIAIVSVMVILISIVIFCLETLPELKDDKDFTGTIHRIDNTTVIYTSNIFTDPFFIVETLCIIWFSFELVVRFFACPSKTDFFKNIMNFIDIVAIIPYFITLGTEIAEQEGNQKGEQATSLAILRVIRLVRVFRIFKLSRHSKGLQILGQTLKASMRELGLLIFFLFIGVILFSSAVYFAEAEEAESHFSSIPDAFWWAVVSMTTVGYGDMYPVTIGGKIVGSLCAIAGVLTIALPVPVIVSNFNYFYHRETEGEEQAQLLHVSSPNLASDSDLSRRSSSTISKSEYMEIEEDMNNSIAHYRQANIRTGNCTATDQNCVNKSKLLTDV
Protocol: as §1, §2

[3] = target: T3, rKV1.2 (Rattus norvegicus, UniProt P63142); test: Two-electrode voltage-clamp on Xenopus laevis oocytes expressing rKV1.2; settings: 3 µM AbeTx1; TEVC, X. laevis oocytes, 500 ms depolarization to 0 mV from holding −90 mV; mean ± SE, n ≥ 3; SEM; read-out: inhibition of KV1.2 current
T3 construct: expressed in transfected cells; host or cells: Xenopus laevis oocytes injected with cRNA
T3 sequence (P63142 whole entry): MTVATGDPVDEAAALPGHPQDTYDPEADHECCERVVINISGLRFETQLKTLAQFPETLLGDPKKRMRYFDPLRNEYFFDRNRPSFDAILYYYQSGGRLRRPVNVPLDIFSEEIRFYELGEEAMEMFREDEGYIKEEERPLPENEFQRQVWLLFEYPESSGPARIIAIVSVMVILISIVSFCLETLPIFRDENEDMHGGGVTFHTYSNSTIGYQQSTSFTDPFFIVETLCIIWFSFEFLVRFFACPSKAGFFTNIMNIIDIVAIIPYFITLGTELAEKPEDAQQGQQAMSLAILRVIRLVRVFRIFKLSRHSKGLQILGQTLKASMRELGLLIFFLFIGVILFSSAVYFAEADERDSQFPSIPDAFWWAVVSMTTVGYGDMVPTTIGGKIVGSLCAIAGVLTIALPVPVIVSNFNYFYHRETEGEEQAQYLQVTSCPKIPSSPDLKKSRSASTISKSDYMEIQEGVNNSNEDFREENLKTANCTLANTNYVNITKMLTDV
Protocol: as §1, with “Oocytes were injected with 20–50 nL of cRNA at a concentration of 1 ng·nL^−1 using a microinjector (Drummond Scientific, Broomall, PA, USA). The oocytes were stored for 1–3 days at 16 °C until sufficient expression of voltage-gated ion channels was achieved. Oocytes were maintained in an ND96 solution (in mM: 96 NaCl, 2 KCl, 1.8 CaCl2, 2 MgCl2 and 5 HEPES; pH 7.4), supplemented with 50 µg·mL^−1 gentamicin sulfate.” left out
(§3) Two-electrode voltage-clamp recordings were performed at room temperature (18–22 °C) using a Geneclamp 500 amplifier (Molecular Devices, Sunnyvale, CA, USA) controlled by a pClamp data acquisition system (Axon Instruments, Union City, CA, USA). […] Whole-cell currents from oocytes were recorded 1–3 days after injection. […] Data were analyzed using Clampfit 10.4 (Molecular Devices, Sunnyvale, CA, USA) and Origin v8.1 software (Origin Lab, Northampton, MA, USA), under the institutional license of the University of São Paulo.

[4] = target: T4, Shaker IR (Drosophila melanogaster, UniProt P08510, DEL6-46); test: Two-electrode voltage-clamp on Xenopus laevis oocytes expressing Shaker IR; settings: 3 µM AbeTx1; TEVC, X. laevis oocytes, 500 ms depolarization to 0 mV from holding −90 mV; mean ± SE, n ≥ 3; SEM; read-out: inhibition of Shaker IR current
T4 construct: expressed in transfected cells; host or cells: Xenopus laevis oocytes injected with cRNA
T4 sequence (P08510 with tags, fused parts or gaps DEL6-46): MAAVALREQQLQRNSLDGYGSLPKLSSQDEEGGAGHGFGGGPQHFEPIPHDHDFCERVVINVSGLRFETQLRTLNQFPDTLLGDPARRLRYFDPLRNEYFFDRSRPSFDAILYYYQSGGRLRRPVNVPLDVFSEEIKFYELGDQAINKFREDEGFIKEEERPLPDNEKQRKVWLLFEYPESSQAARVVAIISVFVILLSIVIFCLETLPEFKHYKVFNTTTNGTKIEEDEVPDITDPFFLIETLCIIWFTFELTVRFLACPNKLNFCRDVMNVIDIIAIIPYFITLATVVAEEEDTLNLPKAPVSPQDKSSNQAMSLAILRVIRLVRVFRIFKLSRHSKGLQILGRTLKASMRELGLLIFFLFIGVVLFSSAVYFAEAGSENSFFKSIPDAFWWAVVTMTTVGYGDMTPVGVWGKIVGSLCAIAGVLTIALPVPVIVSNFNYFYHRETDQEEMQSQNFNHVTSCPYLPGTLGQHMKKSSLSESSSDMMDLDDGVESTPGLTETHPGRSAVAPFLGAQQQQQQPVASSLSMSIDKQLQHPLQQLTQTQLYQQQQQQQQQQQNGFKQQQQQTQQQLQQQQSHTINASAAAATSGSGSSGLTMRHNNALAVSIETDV
Protocol: as §1, with “Oocytes were injected with 20–50 nL of cRNA at a concentration of 1 ng·nL^−1 using a microinjector (Drummond Scientific, Broomall, PA, USA). The oocytes were stored for 1–3 days at 16 °C until sufficient expression of voltage-gated ion channels was achieved. Oocytes were maintained in an ND96 solution (in mM: 96 NaCl, 2 KCl, 1.8 CaCl2, 2 MgCl2 and 5 HEPES; pH 7.4), supplemented with 50 µg·mL^−1 gentamicin sulfate.” left out
as §3

[5] = target: T5, rNaV1.4 (Rattus norvegicus, UniProt P15390); test: Two-electrode voltage-clamp on Xenopus laevis oocytes expressing rNaV1.4; settings: 3 µM AbeTx1; TEVC, X. laevis oocytes, 100 ms depolarization from −90 mV to 0 mV
T5 construct: expressed in transfected cells; host or cells: Xenopus laevis oocytes injected with cRNA
Protocol: as §1, with “Oocytes were injected with 20–50 nL of cRNA at a concentration of 1 ng·nL^−1 using a microinjector (Drummond Scientific, Broomall, PA, USA). The oocytes were stored for 1–3 days at 16 °C until sufficient expression of voltage-gated ion channels was achieved. Oocytes were maintained in an ND96 solution (in mM: 96 NaCl, 2 KCl, 1.8 CaCl2, 2 MgCl2 and 5 HEPES; pH 7.4), supplemented with 50 µg·mL^−1 gentamicin sulfate.” left out
as §3

[6] = target: T6, hKV1.3 (Homo sapiens, UniProt P22001); test: Two-electrode voltage-clamp on Xenopus laevis oocytes expressing hKV1.3; settings: 3 µM AbeTx1; TEVC, X. laevis oocytes, 500 ms depolarization to 0 mV from holding −90 mV; mean ± SE, n ≥ 3; SEM; read-out: inhibition of KV1.3 current
T6 construct: expressed in transfected cells; host or cells: Xenopus laevis oocytes injected with cRNA
T6 sequence (P22001 whole entry): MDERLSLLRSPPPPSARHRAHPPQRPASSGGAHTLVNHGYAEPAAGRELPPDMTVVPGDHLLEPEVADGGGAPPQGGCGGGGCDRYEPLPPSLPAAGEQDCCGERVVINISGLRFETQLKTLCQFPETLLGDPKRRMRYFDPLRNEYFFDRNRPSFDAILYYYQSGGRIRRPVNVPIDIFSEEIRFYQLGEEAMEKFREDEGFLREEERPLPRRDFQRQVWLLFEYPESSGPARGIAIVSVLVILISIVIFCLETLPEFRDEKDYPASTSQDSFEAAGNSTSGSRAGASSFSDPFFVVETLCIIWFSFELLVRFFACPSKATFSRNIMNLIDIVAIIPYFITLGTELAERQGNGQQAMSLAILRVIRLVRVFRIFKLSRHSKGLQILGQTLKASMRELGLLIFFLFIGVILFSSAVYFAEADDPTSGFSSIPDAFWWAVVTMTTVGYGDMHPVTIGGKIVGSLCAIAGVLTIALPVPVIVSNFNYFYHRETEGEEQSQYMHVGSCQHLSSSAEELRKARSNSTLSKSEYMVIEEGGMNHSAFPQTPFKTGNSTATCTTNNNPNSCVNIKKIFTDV
Protocol: as §1, with “Oocytes were injected with 20–50 nL of cRNA at a concentration of 1 ng·nL^−1 using a microinjector (Drummond Scientific, Broomall, PA, USA). The oocytes were stored for 1–3 days at 16 °C until sufficient expression of voltage-gated ion channels was achieved. Oocytes were maintained in an ND96 solution (in mM: 96 NaCl, 2 KCl, 1.8 CaCl2, 2 MgCl2 and 5 HEPES; pH 7.4), supplemented with 50 µg·mL^−1 gentamicin sulfate.” left out
as §3

[7] = target: T7, hERG (Homo sapiens, UniProt Q12809); test: Two-electrode voltage-clamp on Xenopus laevis oocytes expressing hERG (KV11.1); settings: 3 µM AbeTx1; TEVC, X. laevis oocytes, +40 mV pulse 2.5 s then −120 mV 2.5 s
T7 construct: expressed in transfected cells; host or cells: Xenopus laevis oocytes injected with cRNA
Protocol: as §1, with “Oocytes were injected with 20–50 nL of cRNA at a concentration of 1 ng·nL^−1 using a microinjector (Drummond Scientific, Broomall, PA, USA). The oocytes were stored for 1–3 days at 16 °C until sufficient expression of voltage-gated ion channels was achieved. Oocytes were maintained in an ND96 solution (in mM: 96 NaCl, 2 KCl, 1.8 CaCl2, 2 MgCl2 and 5 HEPES; pH 7.4), supplemented with 50 µg·mL^−1 gentamicin sulfate.” left out
as §3

[8] = target: T8, rNaV1.2 (Rattus norvegicus, UniProt P04775); test: Two-electrode voltage-clamp on Xenopus laevis oocytes expressing rNaV1.2; settings: 3 µM AbeTx1; TEVC, X. laevis oocytes, 100 ms depolarization from −90 mV to 0 mV
T8 construct: expressed in transfected cells; host or cells: Xenopus laevis oocytes injected with cRNA
T8 sequence (P04775 whole entry): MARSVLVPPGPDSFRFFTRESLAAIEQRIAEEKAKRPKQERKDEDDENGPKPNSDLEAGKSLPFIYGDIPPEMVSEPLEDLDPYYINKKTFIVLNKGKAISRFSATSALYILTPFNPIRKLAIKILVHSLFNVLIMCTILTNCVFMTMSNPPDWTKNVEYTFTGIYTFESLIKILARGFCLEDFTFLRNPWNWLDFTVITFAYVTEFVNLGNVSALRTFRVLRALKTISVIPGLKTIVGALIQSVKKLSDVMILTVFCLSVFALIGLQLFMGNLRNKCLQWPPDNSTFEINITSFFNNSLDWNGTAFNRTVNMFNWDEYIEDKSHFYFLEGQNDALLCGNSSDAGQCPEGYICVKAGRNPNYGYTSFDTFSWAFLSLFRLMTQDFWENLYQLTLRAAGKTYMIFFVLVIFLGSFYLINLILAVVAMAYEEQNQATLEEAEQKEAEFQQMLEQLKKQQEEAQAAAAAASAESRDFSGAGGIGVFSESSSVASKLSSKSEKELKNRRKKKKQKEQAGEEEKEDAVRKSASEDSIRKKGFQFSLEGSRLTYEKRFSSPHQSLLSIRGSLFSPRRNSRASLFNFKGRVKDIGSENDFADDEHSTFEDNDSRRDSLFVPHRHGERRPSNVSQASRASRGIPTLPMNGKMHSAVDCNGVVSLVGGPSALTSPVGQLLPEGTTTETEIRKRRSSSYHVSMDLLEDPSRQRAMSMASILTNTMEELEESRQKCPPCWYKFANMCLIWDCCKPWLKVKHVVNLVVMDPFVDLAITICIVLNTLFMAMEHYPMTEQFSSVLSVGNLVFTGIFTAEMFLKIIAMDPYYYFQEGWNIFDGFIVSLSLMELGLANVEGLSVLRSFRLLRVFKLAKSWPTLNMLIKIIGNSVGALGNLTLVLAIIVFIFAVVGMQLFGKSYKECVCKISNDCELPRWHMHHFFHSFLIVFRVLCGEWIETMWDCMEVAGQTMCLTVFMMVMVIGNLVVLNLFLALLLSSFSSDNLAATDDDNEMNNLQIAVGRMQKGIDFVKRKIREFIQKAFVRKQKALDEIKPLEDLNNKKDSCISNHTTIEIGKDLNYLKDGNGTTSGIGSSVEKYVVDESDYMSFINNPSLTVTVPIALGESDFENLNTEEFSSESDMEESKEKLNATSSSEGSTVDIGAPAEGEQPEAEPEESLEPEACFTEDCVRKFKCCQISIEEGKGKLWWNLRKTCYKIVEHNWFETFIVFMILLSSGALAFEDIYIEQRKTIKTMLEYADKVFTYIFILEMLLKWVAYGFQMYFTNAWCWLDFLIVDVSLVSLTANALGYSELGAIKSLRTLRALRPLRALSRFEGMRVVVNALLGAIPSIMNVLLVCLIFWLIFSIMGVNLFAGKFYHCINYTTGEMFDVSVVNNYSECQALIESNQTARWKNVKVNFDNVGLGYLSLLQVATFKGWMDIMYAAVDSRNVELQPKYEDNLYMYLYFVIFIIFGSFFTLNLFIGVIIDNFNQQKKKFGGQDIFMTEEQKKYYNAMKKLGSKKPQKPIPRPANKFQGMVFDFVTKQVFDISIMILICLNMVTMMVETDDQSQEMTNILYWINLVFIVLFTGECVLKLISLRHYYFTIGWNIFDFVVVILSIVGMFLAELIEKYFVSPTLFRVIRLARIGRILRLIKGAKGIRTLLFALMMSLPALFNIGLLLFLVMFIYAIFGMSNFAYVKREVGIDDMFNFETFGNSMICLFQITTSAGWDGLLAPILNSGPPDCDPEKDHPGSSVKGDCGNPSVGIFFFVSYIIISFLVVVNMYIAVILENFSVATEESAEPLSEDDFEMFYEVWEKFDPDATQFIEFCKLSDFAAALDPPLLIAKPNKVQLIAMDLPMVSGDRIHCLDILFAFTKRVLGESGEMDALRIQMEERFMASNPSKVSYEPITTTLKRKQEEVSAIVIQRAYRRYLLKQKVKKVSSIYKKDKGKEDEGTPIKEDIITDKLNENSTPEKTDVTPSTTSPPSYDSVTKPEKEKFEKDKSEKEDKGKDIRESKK
Protocol: as §1, with “Oocytes were injected with 20–50 nL of cRNA at a concentration of 1 ng·nL^−1 using a microinjector (Drummond Scientific, Broomall, PA, USA). The oocytes were stored for 1–3 days at 16 °C until sufficient expression of voltage-gated ion channels was achieved. Oocytes were maintained in an ND96 solution (in mM: 96 NaCl, 2 KCl, 1.8 CaCl2, 2 MgCl2 and 5 HEPES; pH 7.4), supplemented with 50 µg·mL^−1 gentamicin sulfate.” left out
as §3

Structure (SMILES) | IC50 ([1]; mean ± SE, n ≥ 3, SEM) | IC50 ([2]; mean ± SE, n ≥ 3, SEM) | inhibition at 3 µM [3] | inhibition at 3 µM [4] | activity on NaV1.4 [5] | inhibition at 3 µM ([1]; 3 µM AbeTx1, TEVC, X. laevis oocytes, 500 ms depolarization to 0 mV from holding −90 mV, mean ± SE, n ≥ 3, SEM, read-out: inhibition of KV1.6 current) | reduction of KV1.6 current, toxin added on top of TEA ([1]; AbeTx1 120 nM applied to bath already containing 920 μM TEA) | inhibition at 3 µM ([2]; 3 µM AbeTx1, TEVC, X. laevis oocytes, 500 ms depolarization to 0 mV from holding −90 mV, mean ± SE, n ≥ 3, SEM, read-out: inhibition of KV1.1 current) | reduction of KV1.1 current, toxin added on top of TEA ([2]; AbeTx1 600 nM applied to bath already containing 200 μM TEA, n = 6) | reduction of the KV1.1 K+ current at +70 mV ([2]; AbeTx1 600 nM, test potential +70 mV from holding −90 mV, n = 6) | reduction of the KV1.1 K+ current at −20 mV ([2]; AbeTx1 600 nM, test potential −20 mV from holding −90 mV, n = 6) | inhibition at 3 µM [6] | effect on KV11.1 (hERG) current [7] | activity on NaV1.2 [8]
C[C@@H]1NC(=O)[C@@H]2CSSC[C@H](NC(=O)[C@H]([C@@H](C)O)NC(=O)[C@H](CCCCN)NC(=O)[C@@H](NC(=O)[C@@H](N)CCCNC(=N)N)CSSC[C@@H](C(=O)NCC(=O)O)NC(=O)[C@H](CC(N)=O)NC(=O)[C@@H]3CCCN3C(=O)[C@H](CCCCN)NC(=O)[C@@H]3CCCN3C1=O)C(=O)N[C@@H](CO)C(=O)N[C@@H](CCCCN)C(=O)NCC(=O)N[C@@H](CCCNC(=N)N)C(=O)N2 [Arg11Ala] (H-RCKTCSKGRCAPKPNCG-OH; disulfide 2-16, 5-10) | 811 ± 179 nM | 21500 nM | – | – | – | – | – | – | – | – | – | – | – | –
C[C@@H](O)[C@@H]1NC(=O)[C@H](CCCCN)NC(=O)[C@@H](NC(=O)[C@@H](N)CCCNC(=N)N)CSSC[C@@H](C(=O)NCC(=O)O)NC(=O)[C@H](CC(N)=O)NC(=O)[C@@H]2CCCN2C(=O)[C@H](CCCCN)NC(=O)[C@@H]2CCCN2C(=O)[C@H](CCCNC(=N)N)NC(=O)[C@@H]2CSSC[C@H](NC1=O)C(=O)N[C@@H](CO)C(=O)N[C@@H](CCCCN)C(=O)NCC(=O)N[C@@H](CCCNC(=N)N)C(=O)N2 [AbeTx1] (H-RCKTCSKGRCRPKPNCG-OH; disulfide 2-16, 5-10) | 116 ± 31.4 nM | 672 ± 150 nM | 95.3 ± 1.45% | 15.5 ± 1.8% | no activity | 95 ± 2.44% | 55.33 ± 2.47% | 83.7 ± 1.45% | 71.20 ± 2.18% | 11.07 ± 1.12% | 53.47 ± 5.07% | 19.7 ± 2.18% | not affected | no activity
